Measured values taken from patent EP0037667A2, “Immobilized lactase, its preparation and use” (priority 1980, dated 1981).
Like-named read-outs stand apart in the source and are kept apart here.

Key:
[1] = molecular target: lactase derived from Escherichia coli (β-galactosidase; enzyme number 3. 2. 1. 23) (Escherichia coli, UniProt P00722); conditions: E. coli lactase, cited from earlier work
[2] = molecular target: T1, lactase originated from Aspergillus oryzae (extracellular enzyme, unimmobilized) (Aspergillus oryzae, UniProt Q2UCU3); assay: Km and Ki of free (unimmobilized) Aspergillus oryzae lactase; assay type: biochemical; conditions: for Ki: substrate, lactose, free enzyme, read-out: Inhibition constant Ki by galactose
T1 construct: obtained from a strain belonging to Aspergillus oryzae as extracellular enzyme; host or cells: Aspergillus oryzae strain (natural producer, secreted)
Experimental: The lactase used in the present invention is obtained from a strain belonging to Aspergillus oryzae as extracellular enzyme, and has the following characteristics:
Km = 0.10 ± 0.05 mole/ℓ (pH 4.5, 30°C, substrate; lactose), and Km = 0.3 ± 0.15 mole/ℓ (pH 6.65, 30°C, substrate; lactose).
Ki = (6 ± 3) x 10^-3 mole/ℓ (pH 4.5, 30°C, substrate; lactose), and Ki = (4 ± 3) x 10^-3 mole/ℓ (pH 6.65, 30°C, substrate; lactose).
In the present specification, 1 ILU is defined as the amount of lactase which produces […] per minute of glucose at pH 4.5 at 30°C when a 13.3 w/v % of lactose solution is used as the substrate. The quantity of glucose thus prepared is defined by using glucose oxidase-peroxidase- dye system. When the measurement of the activity (unit) is carried out at a different pH or temperature, the pH or the temperature will specifically be given in each case.

[3] = molecular target: T2, immobilized lactase: Aspergillus oryzae lactase covalently attached through glutaraldehyde on macroporous phenol-formaldehyde based anion-exchange resin (Aspergillus oryzae, UniProt Q2UCU3); assay: Km and Ki of the immobilized lactase, general properties; assay type: biochemical; conditions: pH 6.65, 30°C, substrate; lactose; immobilized enzyme; read-out: Inhibition constant by galactose Ki
T2 construct: obtained from a strain belonging to Aspergillus oryzae as extracellular enzyme; host or cells: Aspergillus oryzae strain (natural producer, secreted)
Experimental: The enzymatical properties of the present immobilized lactase are given below.
Km = 0.2 ± 0.1 mole/ℓ (both pH 4.5, 30°C, substrate; lactose, and pH 6.65, 30°C, substrate; lactose)
Ki = (8 ± 5) x […] mole/ℓ (pH 4.5, 30°C, substrate; lactose) and Ki = (3 ± 2) x 10^-2 mole/ℓ (pH 6.65, 30°C, substrate; lactose).
Both values of Km and Ki for the immobilized enzyme tend to increase with increase in the concentration of the glutaraldehyde solution used for the treatment, and moreover, in the measurement thereof, it is considerably difficult to obtain the results with good reproducibility. Therefore, the above value given for Km and Ki should be understood taking this respect into consideration."

T1 sequence (Q2UCU3 19-1005): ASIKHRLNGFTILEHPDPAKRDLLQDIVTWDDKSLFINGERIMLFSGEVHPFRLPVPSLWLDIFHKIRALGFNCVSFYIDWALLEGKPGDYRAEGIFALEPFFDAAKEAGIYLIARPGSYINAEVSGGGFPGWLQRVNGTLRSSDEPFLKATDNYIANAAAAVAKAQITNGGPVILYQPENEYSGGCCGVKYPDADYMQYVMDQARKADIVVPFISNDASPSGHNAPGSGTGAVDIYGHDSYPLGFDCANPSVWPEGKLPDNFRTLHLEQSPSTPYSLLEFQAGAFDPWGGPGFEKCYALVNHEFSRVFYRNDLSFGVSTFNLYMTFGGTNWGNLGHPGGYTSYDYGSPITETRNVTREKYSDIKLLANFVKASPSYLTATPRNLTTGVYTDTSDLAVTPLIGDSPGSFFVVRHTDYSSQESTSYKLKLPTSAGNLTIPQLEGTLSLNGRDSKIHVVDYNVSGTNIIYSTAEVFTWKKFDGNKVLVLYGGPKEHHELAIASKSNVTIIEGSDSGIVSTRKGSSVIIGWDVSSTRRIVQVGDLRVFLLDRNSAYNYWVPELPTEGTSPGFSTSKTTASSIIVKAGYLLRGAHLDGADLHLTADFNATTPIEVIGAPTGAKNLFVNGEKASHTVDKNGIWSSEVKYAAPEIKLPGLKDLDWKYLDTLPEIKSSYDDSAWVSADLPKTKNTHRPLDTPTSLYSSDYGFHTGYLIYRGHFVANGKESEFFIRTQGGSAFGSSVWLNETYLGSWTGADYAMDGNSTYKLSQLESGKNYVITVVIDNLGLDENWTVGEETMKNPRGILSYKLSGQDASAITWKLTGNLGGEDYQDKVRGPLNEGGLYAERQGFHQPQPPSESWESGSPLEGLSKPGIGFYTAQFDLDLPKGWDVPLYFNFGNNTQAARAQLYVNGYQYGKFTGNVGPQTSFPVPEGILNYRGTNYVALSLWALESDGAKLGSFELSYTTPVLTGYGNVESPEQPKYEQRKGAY
Sequence of lactase derived from Escherichia coli (β-galactosidase; enzyme number 3. 2. 1. 23) (P00722 2-1024): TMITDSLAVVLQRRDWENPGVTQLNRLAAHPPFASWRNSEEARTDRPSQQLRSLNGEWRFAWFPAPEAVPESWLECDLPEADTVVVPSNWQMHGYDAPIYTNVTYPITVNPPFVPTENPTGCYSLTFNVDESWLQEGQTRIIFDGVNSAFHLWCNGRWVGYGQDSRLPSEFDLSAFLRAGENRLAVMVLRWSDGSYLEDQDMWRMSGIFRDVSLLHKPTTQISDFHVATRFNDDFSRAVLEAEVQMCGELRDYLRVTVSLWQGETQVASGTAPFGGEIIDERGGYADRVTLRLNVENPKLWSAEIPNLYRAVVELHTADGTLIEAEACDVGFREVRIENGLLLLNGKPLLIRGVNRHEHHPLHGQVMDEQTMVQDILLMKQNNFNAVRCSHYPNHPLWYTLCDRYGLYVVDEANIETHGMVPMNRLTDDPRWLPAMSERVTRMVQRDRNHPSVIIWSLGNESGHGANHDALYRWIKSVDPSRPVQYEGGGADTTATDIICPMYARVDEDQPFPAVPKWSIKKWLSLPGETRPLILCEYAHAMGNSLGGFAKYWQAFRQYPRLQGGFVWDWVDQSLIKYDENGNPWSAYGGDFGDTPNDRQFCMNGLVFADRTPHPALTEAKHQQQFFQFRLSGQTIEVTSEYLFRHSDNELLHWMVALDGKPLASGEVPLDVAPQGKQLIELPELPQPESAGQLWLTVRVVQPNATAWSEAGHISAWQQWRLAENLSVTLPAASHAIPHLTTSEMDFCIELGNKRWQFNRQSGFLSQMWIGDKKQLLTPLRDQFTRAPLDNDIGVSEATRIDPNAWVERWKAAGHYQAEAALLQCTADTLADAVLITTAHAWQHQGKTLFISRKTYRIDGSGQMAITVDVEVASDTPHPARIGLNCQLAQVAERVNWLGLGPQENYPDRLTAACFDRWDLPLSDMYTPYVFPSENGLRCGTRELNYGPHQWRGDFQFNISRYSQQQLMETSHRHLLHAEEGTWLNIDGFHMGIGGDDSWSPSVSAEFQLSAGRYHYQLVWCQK
T2 sequence (Q2UCU3 19-1005): as the sequence (Q2UCU3 19-1005) above

SMILES: O=[N+]([O-])c1ccccc1O[C@@H]1O[C@H](CO)[C@H](O)[C@H](O)[C@H]1O [ONPG, ortho-nitrophenyl-β-D-galactopyranoside, reference compound]
- Km ([1]; read-out: Michaelis constant Km (substrate; ONPG)): 0.95 mM

SMILES: OC[C@H]1OC(O)[C@H](O)[C@@H](O)[C@H]1O (stereo partly drawn) [galactose]
- Ki ([2]; pH 4.5, 30°C): 6 mM
- Ki ([2]; pH 6.65, 30°C): 4 mM
- Ki [3]: 30 mM

SMILES: OC[C@H]1O[C@@H](O[C@H]2[C@H](O)[C@@H](O)C(O)O[C@@H]2CO)[C@H](O)[C@@H](O)[C@H]1O (stereo partly drawn) [lactose]
- Km ([2]; pH 4.5, 30°C, dry lactase powder used in Example 3 (Shinnihon Kagaku Kogyo, 80 ILU/mg)): 100 mM
- Km ([1]; read-out: Michaelis constant Km (substrate; lactose)): 7.5 mM
